Data: patent US7521563B2, “Hydroxamic acid derivative and medicine containing the same as active ingredient” (Shizuoka Coffein Co., Ltd., priority 2004, dated 2009)

Columns and labels:
IL-6 production = IL-6 production suppression test in LPS-stimulated PMA-differentiated THP-1 cells (ELISA); assay type: cell-based, Human; settings: for IL-6 production suppression rate (%): THP-1 cells, LPS 1 μg/mL, 24 hours
Method: (§1) Tests were conducted with reference to the method by G. Lozanski et al. (J. Rheumatol., Vol. 19, 921-926, 1992).
(§2) Using a 10% fetal calf serum (FCS)-added PRMI-1640 medium, THP-1 cells (Dainippon Pharmaceutical Co., Ltd.) were prepared in an amount of 10^6/mL, and inoculated on a 48-well microplate in an amount of 500 μL per well. 10^−8 M of phorbol 12-myristate 13-acetate (PMA) was added to the wells, and the cells were cultured for 24 hours to induce differentiation of the cells to macrophages.
(§3) 50 μL of test substance diluting liquid or DMSO diluting liquid was added to the wells, and the cells were preincubated by a CO2 incubator at 37° C. for 30 minutes. 5 μL of LPS (111 μg/mL) (final concentration: 1 μg/mL) was added to each well. Furthermore, wells with no LPS added to the DMSO diluting liquid were set. After the cells were cultured for 24 hours, they were centrifuged to take cell supernatants, and the IL-6 level was measured using the Human IL-6 ELISA kit (Biosource International), and TNFα was measured using the Human tumor necrosis factor-α ELISA kit (Biosource International), by the enzyme-linked immunosorbent assay (ELISA).

TNFα production = TNFα production suppression test in LPS-stimulated PMA-differentiated THP-1 cells (ELISA); assay type: cell-based, Human; settings: for TNFα production suppression rate (%): THP-1 cells, LPS 1 μg/mL, 24 hours
Method: as §1, §2, §3

THP-1 cells = test: Evaluation of cytotoxicity by the MTT method; assay type: cell-based; settings: DMSO well = 100%
Method: Cytotoxicity was evaluated by the MTT method.
Specifically, a 0.5 mg/mL solution of 3-(4,5-dimethyl-2-thiazolyl)-2,5-diphenyl-2H-tetrazolium bromide (MTT, Sigma) prepared in a 10% fetal calf serum (FCS)-added PRMI-1640 medium was added in an amount of 100 μL per well to cells with culture supernatants removed in test example 1, and the cells were cultured for 3 hours. The culture solution was removed by centrifugal separation, 100 μL of methanol was added to each well, and the absorbance was measured at a wavelength of 570 nm after cytolysis.
The absorbances for the well to which the DMSO diluting liquid was added and the well to which no LPS was added are 100% and 0%, respectively, the absorbances for wells of different doses of test substances are expressed as percentages, and the results are shown in Table 4.

[1] = range of concentrations 1×10^−5-−9 M
[2] = active concentration 1 × 10^−6 M
[3] = concentration 1 × 10^−9 M (first column)
[4] = concentration 1 × 10^−9 M (second column, as printed)
[5] = active concentration 1 × 10^−7 M

Compound	IL-6 production suppressing activity (IL-6 production; [1])	TNFα production suppressing activity (TNFα production; [1])	TNFα production suppression rate (%) (TNFα production; [2])	Cytotoxicity test: absorbance (570 nm, MTT) expressed as percentage (THP-1 cells; concentration 1 × 10^−5 M) [%]	Cytotoxicity test: absorbance (570 nm, MTT) expressed as percentage (THP-1 cells; concentration 1 × 10^−6 M) [%]	Cytotoxicity test: absorbance (570 nm, MTT) expressed as percentage (THP-1 cells; concentration 1 × 10^−7 M) [%]	Cytotoxicity test: absorbance (570 nm, MTT) expressed as percentage (THP-1 cells; [3]) [%]	Cytotoxicity test: absorbance (570 nm, MTT) expressed as percentage (THP-1 cells; [4]) [%]	IL-6 production suppression rate (%) (IL-6 production; [2])	TNFα production suppression rate (%) (TNFα production; [5])	IL-6 production suppression rate (%) (IL-6 production; [5])
O=C(O)CCCCCc1nc(-c2ccccc2)c(-c2ccccc2)o1 [4,5-diphenyl-2-oxazolehexanoic acid, reference compound]	no activity	no activity	–	–	–	–	–	–	–	–	–
O=C(CCCCCc1nc(-c2ccccc2)c(-c2ccc(F)cc2)s1)NO [Example 8, 5-(4-fluorophenyl)-N-hydroxy-4-phenyl-2-thiazolehexanamide]	–	–	40	88.9	113.7	106.7	106.7	105.3	–	–	–
O=C(CCCCCc1ncc(-c2ccc(Br)cc2)s1)NO [Example 20, 5-(4-bromophenyl)-N-hydroxy-2-thiazolehexanamide]	–	–	–	82.3	97.6	102.0	95.6	104.0	64	44	–
O=C(CCCCCCc1nc(-c2ccccc2)c(-c2ccccc2)o1)NO [Example 24, N-hydroxy-4,5-diphenyl-2-oxazoleheptanamide]	–	–	–	83.8	91.8	88.1	96.4	83.9	–	–	50
O=C(CCCCCc1nc(-c2ccccc2)c(-c2ccccc2)o1)NO [Example 25, N-hydroxy-4,5-diphenyl-2-oxazolehexanamide]	–	–	–	78.9	83.6	87.6	85.8	91.9	–	–	50
